Here are results for twelve compounds from patent publication US12459912B2 (priority 2020, dated 2025).

Assay [1] has as its target T1, human 5-HT transporter (hSERT) (Homo sapiens, UniProt P31645).
T1 construct: expressed in transfected cells; host or cells: CHO cells
As to the kind of experiment: Human serotonin transporter antagonist radioligand assay ([^3H]imipramine, CHO cells). Type of assay: binding. On the procedure:
We therefore separately measured interactions with these transporters using two additional types of assays: an antagonist radioligand assay of inhibition of the human 5-HT transporter (hSERT) expressed in CHO cells (Tatsumi, M. et al. (1999), Eur. J. Pharmacol., 368: 277-283) and an assay measuring release of [^3H] […] While the former is sensitive to classic reuptake inhibition, the latter can detect the effects of substrates, which also induce release.
Benzothiophene derivatives were evaluated for inhibiting the human 5-HT transporter (hSERT) as expressed in CHO cells using an antagonist radioligand assay (Tatsumi, M. et al. (1999), Eur. J. Pharmacol., 368: 277-283). […] Test compounds were assayed in three trials at […], and 0.94868 μM.
When compounds are substrates for monoamine transporters instead of solely inhibitors, it is known that IC50 values underestimate their potency for interacting with these transporters (Ilic, M. et al. (2020), Frontiers in Pharmacology 11: 673).

The target of a further assay is T2, human DAT (Homo sapiens, UniProt Q01959).
T2 construct: expressed in transfected cells
T2 sequence (Q01959 whole entry): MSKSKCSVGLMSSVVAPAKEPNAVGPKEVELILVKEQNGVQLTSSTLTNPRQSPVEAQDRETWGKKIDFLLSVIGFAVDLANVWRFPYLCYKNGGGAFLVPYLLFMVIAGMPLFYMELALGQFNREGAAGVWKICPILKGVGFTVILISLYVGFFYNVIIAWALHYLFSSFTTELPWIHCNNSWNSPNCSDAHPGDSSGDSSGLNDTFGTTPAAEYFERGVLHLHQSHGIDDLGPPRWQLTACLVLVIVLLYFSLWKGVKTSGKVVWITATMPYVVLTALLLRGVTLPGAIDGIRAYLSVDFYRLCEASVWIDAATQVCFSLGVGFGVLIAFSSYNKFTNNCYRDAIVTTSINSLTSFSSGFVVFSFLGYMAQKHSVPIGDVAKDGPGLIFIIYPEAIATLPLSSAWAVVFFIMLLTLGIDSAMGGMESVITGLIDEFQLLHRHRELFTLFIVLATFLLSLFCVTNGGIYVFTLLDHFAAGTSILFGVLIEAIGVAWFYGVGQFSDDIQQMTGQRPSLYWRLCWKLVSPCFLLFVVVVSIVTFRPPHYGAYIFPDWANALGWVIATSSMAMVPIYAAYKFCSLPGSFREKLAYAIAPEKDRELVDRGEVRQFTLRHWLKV
Description: hDAT [^3H]dopamine release assay (CHO cells). It counts as cell-based. The settings on record: for DAT/SERT ratio: (DAT EC50)^−1/(SERT EC50)^−1, larger numbers indicate higher DAT selectivity; for [^3H]-labeled dopamine release (figure legend): percent of max release compared to a control, as function of concentration.

A further assay has as its system Swiss CD 1 mice. As to the kind of experiment: Marble burying test. Type of assay: in vivo. The settings on record: racemic compounds, intraperitoneally 30 minutes before a 30-min session.
The target of another assay is T3, human SERT (Homo sapiens, UniProt P31645).
T3 construct: expressed in transfected cells
T3 sequence (P31645 whole entry): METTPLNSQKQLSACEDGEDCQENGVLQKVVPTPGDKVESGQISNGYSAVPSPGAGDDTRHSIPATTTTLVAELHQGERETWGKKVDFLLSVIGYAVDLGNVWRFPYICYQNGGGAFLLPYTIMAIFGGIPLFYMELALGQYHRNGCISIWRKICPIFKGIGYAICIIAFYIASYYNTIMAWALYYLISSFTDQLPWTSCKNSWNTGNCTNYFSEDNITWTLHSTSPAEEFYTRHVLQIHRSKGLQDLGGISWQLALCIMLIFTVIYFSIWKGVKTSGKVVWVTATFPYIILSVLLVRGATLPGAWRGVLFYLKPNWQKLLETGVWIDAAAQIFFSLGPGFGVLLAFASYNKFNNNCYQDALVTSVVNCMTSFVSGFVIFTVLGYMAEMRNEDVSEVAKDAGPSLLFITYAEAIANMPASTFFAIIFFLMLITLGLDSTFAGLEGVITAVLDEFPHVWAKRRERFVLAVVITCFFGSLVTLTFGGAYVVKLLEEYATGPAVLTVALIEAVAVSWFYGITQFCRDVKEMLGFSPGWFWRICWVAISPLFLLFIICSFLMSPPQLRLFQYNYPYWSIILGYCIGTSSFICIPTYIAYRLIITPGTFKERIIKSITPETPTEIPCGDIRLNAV
As to the kind of experiment: hSERT [^3H]serotonin release assay (CHO cells). Type of assay: cell-based. The settings on record: for [^3H]-labeled serotonin release (figure legend): percent of max release compared to a control, as function of concentration.

For assay [2], the target named is 5-Hydroxytryptamine (Serotonin) Receptor 1B (5-HT1B) (Homo sapiens, UniProt P28222). As to the kind of experiment: 5-HT1B/cAMP. Type of assay: cell-based. The following applies: EC50 at 5-HT1B, agonist.
Chain of 5-Hydroxytryptamine (Serotonin) Receptor 1B (5-HT1B) (P28222 whole entry): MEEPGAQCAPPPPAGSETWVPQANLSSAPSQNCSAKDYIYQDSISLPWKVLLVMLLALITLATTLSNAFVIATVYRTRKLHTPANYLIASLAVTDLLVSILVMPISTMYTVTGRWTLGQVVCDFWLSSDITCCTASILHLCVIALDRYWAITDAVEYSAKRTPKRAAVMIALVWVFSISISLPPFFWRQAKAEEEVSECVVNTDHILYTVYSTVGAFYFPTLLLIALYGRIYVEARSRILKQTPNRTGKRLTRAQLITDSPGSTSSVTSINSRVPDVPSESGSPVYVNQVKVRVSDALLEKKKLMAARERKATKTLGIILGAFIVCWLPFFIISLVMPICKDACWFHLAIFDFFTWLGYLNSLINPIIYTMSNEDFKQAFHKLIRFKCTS
The conditions of assay [3]: Poos 1967; cited from earlier work.
Another assay concerns the target MAO-A (Rattus norvegicus, UniProt P21396). The following applies: read-out: IC50 MAO-A; Vallejos et al. 2005; cited from earlier work.
Another assay has as its system neuritogenesis. The following applies: Ly et al. 2018, cited from earlier work.
The next assay deals with 5-HT1B (Homo sapiens, UniProt P28222). The following applies: Ray 2010; cited from earlier work.
Chain of 5-HT1B (P28222 whole entry, species assumed): as the sequence (P28222 whole entry) above
Assay [4] has as its target T4, nAChR(a4/b2) (Nicotinic acetylcholine Receptor α4 β2) (Homo sapiens, UniProt P17787+P43681).
T4 construct: expressed in transfected cells
As to the kind of experiment: cell-based. The settings on record: reference compound, Blocker mode; read-out: RC50 (μM), Result Type IC50.

The target in assay [5] is T5, GABAA (Gamma-aminobutyric acid Receptor A).
T5 construct: other: opener
It counts as cell-based. The following applies: reference compound, Blocker mode; read-out: RC50 (μM), Result Type IC50.

“Also recorded” adds a separate entry of the source.

T1 sequence (P31645 whole entry): as the sequence (P31645 whole entry) above
Chain of MAO-A (P21396 whole entry): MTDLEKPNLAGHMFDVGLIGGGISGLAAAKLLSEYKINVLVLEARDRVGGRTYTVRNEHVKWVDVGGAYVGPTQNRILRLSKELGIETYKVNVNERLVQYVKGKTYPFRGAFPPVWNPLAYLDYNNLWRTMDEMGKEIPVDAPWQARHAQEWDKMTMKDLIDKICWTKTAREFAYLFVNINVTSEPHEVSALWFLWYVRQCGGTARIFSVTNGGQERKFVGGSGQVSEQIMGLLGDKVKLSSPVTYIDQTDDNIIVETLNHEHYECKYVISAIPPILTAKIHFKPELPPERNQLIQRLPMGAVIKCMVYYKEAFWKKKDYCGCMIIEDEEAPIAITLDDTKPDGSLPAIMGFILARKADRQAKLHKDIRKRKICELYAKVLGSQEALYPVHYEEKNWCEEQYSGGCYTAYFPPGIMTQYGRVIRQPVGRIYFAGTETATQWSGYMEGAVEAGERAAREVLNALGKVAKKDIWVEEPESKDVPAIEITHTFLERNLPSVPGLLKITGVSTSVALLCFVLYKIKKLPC
T4 sequence (P43681 29-627 limits assumed): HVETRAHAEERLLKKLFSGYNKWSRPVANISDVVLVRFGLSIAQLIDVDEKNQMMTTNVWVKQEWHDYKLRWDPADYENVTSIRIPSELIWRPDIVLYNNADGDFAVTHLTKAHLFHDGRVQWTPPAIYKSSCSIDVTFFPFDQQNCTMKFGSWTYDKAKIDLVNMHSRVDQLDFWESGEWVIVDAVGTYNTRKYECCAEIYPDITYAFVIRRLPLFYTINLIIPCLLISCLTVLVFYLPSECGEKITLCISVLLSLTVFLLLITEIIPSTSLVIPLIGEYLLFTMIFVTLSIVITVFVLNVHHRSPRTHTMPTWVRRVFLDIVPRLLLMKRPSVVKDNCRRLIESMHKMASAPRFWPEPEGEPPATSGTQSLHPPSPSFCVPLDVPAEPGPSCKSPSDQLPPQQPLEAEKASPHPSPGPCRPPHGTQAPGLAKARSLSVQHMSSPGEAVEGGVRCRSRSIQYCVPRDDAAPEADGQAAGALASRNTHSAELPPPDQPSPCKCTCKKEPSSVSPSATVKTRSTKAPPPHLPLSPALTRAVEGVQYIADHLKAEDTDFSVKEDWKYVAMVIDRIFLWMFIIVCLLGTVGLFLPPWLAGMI
T4 sequence (P17787 26-502): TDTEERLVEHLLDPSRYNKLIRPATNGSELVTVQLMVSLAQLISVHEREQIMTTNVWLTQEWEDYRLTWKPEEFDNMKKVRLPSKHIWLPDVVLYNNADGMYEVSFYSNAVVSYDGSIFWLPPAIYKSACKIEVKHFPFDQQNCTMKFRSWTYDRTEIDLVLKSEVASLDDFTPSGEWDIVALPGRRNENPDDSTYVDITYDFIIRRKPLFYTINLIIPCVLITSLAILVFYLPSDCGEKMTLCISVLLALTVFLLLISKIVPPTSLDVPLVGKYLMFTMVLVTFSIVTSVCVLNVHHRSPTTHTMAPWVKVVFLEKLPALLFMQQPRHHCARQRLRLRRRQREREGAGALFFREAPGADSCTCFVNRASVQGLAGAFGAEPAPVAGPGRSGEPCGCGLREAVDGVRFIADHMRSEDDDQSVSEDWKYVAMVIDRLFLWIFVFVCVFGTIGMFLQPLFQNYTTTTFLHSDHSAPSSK

What is called IC50 is the concentration at which inhibition is half-maximal. One may read the Ki as the equilibrium dissociation constant of an inhibitor or competing ligand from its target. Read a low Ki as higher affinity. In [1], `CNC(C)Cc1ccc2sccc2c1` (stereo not shown) came in with an IC50 of 250 nM and a Ki of 120 nM.
In the case of `CNC(C)C(=O)c1ccc2sccc2c1` (stereo not shown), in assay [1], the IC50 came out at 2000 nM and the Ki was found to be 900 nM.
In assay [1], `CCNC(C)Cc1ccc2sccc2c1` (stereo not shown) had an IC50 of 100 nM and a Ki of 50 nM.
As usually defined, the EC50 is the midpoint of the concentration-response curve. With `CNC(C)C(=O)c1ccc2sccc2c1.Cl` (stereo not shown) [Bk-5-MAPBT, 1-(benzo[b]thiophen-5-yl)-2-(methylamino) propan-1-one hydrochloride], on human DAT, the response was half-maximal at 194 nM (EC50); the DAT/SERT ratio amounted to 0.52; the “[^3H]-labeled dopamine release (figure legend)” value (“[^3H]-labeled dopamine release” for short) is “rapidly induces extracellular dopamine and serotonin release”. Also, the “anxiolytic effect (marbles left unburied versus placebo)” value in the assay with Swiss CD 1 mice was “dose-dependent anxiolytic effects”. Moreover, at human SERT, the EC50 stood at 101 nM; the “[^3H]-labeled serotonin release (figure legend)” value (from here on “[^3H]-labeled serotonin release”) was “rapidly induces extracellular dopamine and serotonin release”. In [2], this compound returned an EC50 of 59 nM.
Regarding `CC(N)Cc1csc2ccccc12` (stereo not shown) [Compound 3-APBT, 1-(1-benzothiophen-3-yl)propan-2-amine], the effect on appetite entry in assay [3] is given as “acted to reduce appetite”. Further, the 50% inhibitory concentration (IC50) on MAO-A was 16200 ± 400 nM.
`CCNC(C)Cc1ccc2sccc2c1.Cl` (stereo not shown) [Compound 5-EAPBT, 1-(benzothiophen-5-yl)-N-ethylpropan-2-amine hydrochloride]: at human DAT, a half-maximal response (EC50) required 98 nM; the DAT/SERT ratio was 0.54; the “[^3H]-labeled dopamine release” value is “rapidly induces extracellular dopamine and serotonin release”. Also, the “dopamine release Emax in comparison to the reference releaser amphetamine” value on human DAT (high concentrations, 100 μM amphetamine as reference, hydrochloride) was “partial DAT substrate; also recorded: Emax below that of the reference releaser”. The “anxiolytic effect (marbles left unburied versus placebo)” value with Swiss CD 1 mice was “dose-dependent anxiolytic effects”. In addition, on human SERT, the concentration giving a half-maximal response (EC50) is 53 nM; the “[^3H]-labeled serotonin release” value is “rapidly induces extracellular dopamine and serotonin release”.
For `CNC(C)Cc1ccc2sccc2c1.Cl` (stereo not shown) [Compound 5-MAPBT, 1-(benzothiophen-5-yl)-N-methylpropan-2-amine hydrochloride], on human DAT, the EC50 came out at 129 nM; the DAT/SERT ratio is on record as 0.18; the “[^3H]-labeled dopamine release” value is “rapidly induces extracellular dopamine and serotonin release”. For the same compound, the “anxiolytic effect (marbles left unburied versus placebo)” value with Swiss CD 1 mice is “dose-dependent anxiolytic effects”. Moreover, at human SERT, the EC50 came out at 23 nM; the “[^3H]-labeled serotonin release” value is “rapidly induces extracellular dopamine and serotonin release”. In assay [2], the EC50 was found to be 38 nM.
On to `CNC(C)Cc1ccc2ccsc2c1.Cl` (stereo not shown) [Compound 6-MAPBT, 1-(benzothiophen-6-yl)-N-methylpropan-2-amine hydrochloride], for which, at human DAT, the EC50 is 71 nM; the DAT/SERT ratio was 0.80; the “[^3H]-labeled dopamine release” value was “rapidly induces extracellular dopamine and serotonin release”. Moreover, in the assay on Swiss CD 1 mice, the “anxiolytic effect (marbles left unburied versus placebo)” value is on record as “dose-dependent anxiolytic effects”. At human SERT, the EC50 was 57 nM; the “[^3H]-labeled serotonin release” value was “rapidly induces extracellular dopamine and serotonin release”. The same compound displayed an EC50 in assay [2] of 24 nM.
Take `CNC(C)Cc1ccc2c(c1)OCO2` (stereo not shown) [MDMA]: the “Emax for promoting neuritogenesis relative to ketamine” value with neuritogenesis is “approximately twice that of ketamine”. Moreover, the concentration giving a half-maximal response (EC50) in the assay with neuritogenesis (read-out: EC50 for promoting neuritogenesis) is 7.41 nM. In addition, the “binding to 5-HT1B” value on 5-HT1B is recorded as “does not bind directly”.
In assay [1], `CNC(C)Cc1ccc2ccsc2c1` (stereo not shown) [drawing 525] came in with an IC50 of 1500 nM and a Ki of 680 nM.
Take “Dihydro-AY-erythroidine [reference compound]”: the 50% inhibitory concentration (IC50) in assay [4] turned out to be 0.682 µM.
For the compound Picrotoxin [reference compound], in assay [5], the IC50 came out at 2.78 µM.
